Assay results as given in US7396837B2, “Antitumoral analogs of lamellarins” (Pharma Mar, S.A.U., priority 2002, dated 2008).
Read-outs that look alike come from different tables or passages of the source.

Experiments:
Assay type in all cases: cell-based
K-562 = test: SRB colorimetric cell growth inhibition assay, K-562; conditions: Homo sapiens; for GI50: GI=growth inhibition, read-out: GI50 K-562; for CC50: cell killing (cytotoxic effect); for IC (TGI): total growth inhibition (cytostatic effect), read-out: TGI K-562
Method in brief: (§1)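 Human tumour cells continuously exposed to compound in 96-well culture; growth and viability quantified colorimetrically by sulforhodamine B staining. Mean ± SD from triplicate wells; GI (growth inhibition), TGI (total growth inhibition, cytostatic) and LC (cell killing, cytotoxic) parameters derived.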

A-549 = test: SRB colorimetric cell growth inhibition assay, A-549; conditions: Homo sapiens; for GI50: GI=growth inhibition, read-out: GI50 A-549; for CC50: cell killing (cytotoxic effect); for IC (TGI): total growth inhibition (cytostatic effect), read-out: TGI A-549
Method in brief: as §1

SK-MEL-28 = test: SRB colorimetric cell growth inhibition assay, SK-MEL-28; conditions: Homo sapiens; for GI50: GI=growth inhibition, read-out: GI50 MEL-28; for CC50: LC=cell killing (cytotoxic effect); for IC (TGI): TGI=total growth inhibition (cytostatic effect), read-out: TGI MEL-28
Method in brief: as §1

HT-29 = test: SRB colorimetric cell growth inhibition assay, HT-29; conditions: Homo sapiens; for GI50: GI=growth inhibition, read-out: GI50 HT-29; for CC50: cell killing (cytotoxic effect); for IC (TGI): total growth inhibition (cytostatic effect), read-out: TGI HT-29
Method in brief: as §1

LoVo = test: SRB colorimetric cell growth inhibition assay, LoVo; conditions: Homo sapiens, LoVo; for GI50: GI=growth inhibition, read-out: GI50 LOVO; for CC50: cell killing (cytotoxic effect); for IC (TGI): total growth inhibition (cytostatic effect), read-out: TGI LOVO
Method in brief: as §1

LoVo-Dox = test: SRB colorimetric cell growth inhibition assay, LoVo-Dox (MDR); conditions: Homo sapiens; for GI50: GI=growth inhibition, read-out: GI50 LOVO-DOX; for CC50: cell killing (cytotoxic effect); for IC (TGI): total growth inhibition (cytostatic effect), read-out: TGI LOVO-DOX
Method in brief: as §1

DU-145 = test: SRB colorimetric cell growth inhibition assay, DU-145; conditions: Homo sapiens; for GI50: GI=growth inhibition, read-out: GI50 DU-145; for CC50: LC=cell killing (cytotoxic effect); for IC (TGI): TGI=total growth inhibition (cytostatic effect), read-out: TGI DU-145
Method in brief: as §1

LNCaP = test: SRB colorimetric cell growth inhibition assay, LNCaP; conditions: Homo sapiens, LNCaP; for GI50: GI=growth inhibition, read-out: GI50 LN-caP; for CC50: LC=cell killing (cytotoxic effect); for IC (TGI): TGI=total growth inhibition (cytostatic effect), read-out: TGI LN-caP
Method in brief: as §1

SK-BR-3 = test: SRB colorimetric cell growth inhibition assay, SK-BR-3; conditions: Homo sapiens; for GI50: GI=growth inhibition, read-out: GI50 SK-BR-3; for CC50: LC=cell killing (cytotoxic effect); for IC (TGI): TGI=total growth inhibition (cytostatic effect), read-out: TGI SK-BR-3
Method in brief: as §1

IGROV = test: SRB colorimetric cell growth inhibition assay, IGROV; conditions: Homo sapiens, IGROV; for GI50: GI=growth inhibition, read-out: GI50 IGROV; for CC50: LC=cell killing (cytotoxic effect); for IC (TGI): TGI=total growth inhibition (cytostatic effect), read-out: TGI IGROV
Method in brief: as §1

IGROV-ET = test: SRB colorimetric cell growth inhibition assay, IGROV-ET (ET-743 resistant); conditions: Homo sapiens; for GI50: GI=growth inhibition, read-out: GI50 IGROV-ET; for CC50: LC=cell killing (cytotoxic effect); for IC (TGI): TGI=total growth inhibition (cytostatic effect), read-out: TGI IGROV-ET
Method in brief: as §1

PANC-1 = test: SRB colorimetric cell growth inhibition assay, PANC-1; conditions: Homo sapiens; for GI50: GI=growth inhibition, read-out: GI50 PANC-1; for CC50: cell killing (cytotoxic effect); for IC (TGI): total growth inhibition (cytostatic effect), read-out: TGI PANC-1
Method in brief: as §1

SKOV-3 = test: SRB colorimetric cell growth inhibition assay, SKOV-3; conditions: Homo sapiens; for GI50: SK-OV-3, SKOV-3, GI=growth inhibition, read-out: GI50 SKOV-3; for IC (TGI): TGI=total growth inhibition (cytostatic effect), read-out: TGI SKOV-3
Method in brief: (§2)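 SRB colorimetric readout of cell growth/viability in 96-well format. Means ± SD from triplicate wells; GI (growth inhibition), TGI (total growth inhibition, cytostatic) and LC (cell killing, cytotoxic) parameters derived.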

[1] = SRB colorimetric cell growth inhibition assay, H-MEC-1; conditions: human
Method in brief: as §2

H-MEC-1 = test: as above; conditions: Homo sapiens, HMEC-1, H-MEC-1; for GI50: GI=growth inhibition; for IC (TGI): TGI=total growth inhibition (cytostatic effect), read-out: TGI H-MEC-1
Method in brief: as §2

## COc1cc2ccn3c(c(-c4ccc(OS(=O)(=O)C(F)(F)F)c(OC)c4)c4c5cc(OC)c(OS(=O)(=O)C(F)(F)F)cc5oc(=O)c43)c2cc1OC [Compound 126]
K-562; K562, K-562
  GI50: 2150 nM
  IC (TGI): 4.32 µM
K-562; K562, K-562, read-out: LC50 K-562
  CC50: 8.69 µM
A-549; A549, A-549
  GI50: 2980 nM
  IC (TGI): 5.74 µM
A-549; A549, A-549, read-out: LC50 A-549
  CC50: 2.25 µM
SK-MEL-28; SK-MEL-28, MEL-28
  GI50: 2930 nM
  IC (TGI): 5.27 µM
SK-MEL-28; SK-MEL-28, MEL-28, read-out: LC50 MEL-28
  CC50: 9.48 µM
HT-29; HT-29, HT-29
  GI50: 3000 nM
  IC (TGI): 9.22 µM
HT-29; HT-29, HT-29, read-out: LC50 HT-29
  CC50: 12.9 µM
LoVo
  GI50: 2560 nM
  IC (TGI): 5.68 µM
LoVo; read-out: LC50 LOVO
  CC50: 12.6 µM
LoVo-Dox; LOVO-DOX
  GI50: 12.9 µM
  IC (TGI): 12.9 µM
LoVo-Dox; LOVO-DOX, read-out: LC50 LOVO-DOX
  CC50: 12.9 µM
DU-145; DU-145, DU-145
  GI50: 2530 nM
  IC (TGI): 6.49 µM
DU-145; DU-145, DU-145, read-out: LC50 DU-145
  CC50: 12.9 µM
LNCaP; LN-caP
  GI50: 1250 nM
  IC (TGI): 2.76 µM
LNCaP; LN-caP, read-out: LC50 LN-caP
  CC50: 6.04 µM
SK-BR-3; SK-BR-3, SK-BR-3
  GI50: 2110 nM
  IC (TGI): 5.36 µM
SK-BR-3; SK-BR-3, SK-BR-3, read-out: LC50 SK-BR-3
  CC50: 1.29 µM
IGROV
  GI50: 2260 nM
  IC (TGI): 5.32 µM
IGROV; read-out: LC50 IGROV
  CC50: 12.6 µM
IGROV-ET; IGROV-ET
  GI50: 3880 nM
  IC (TGI): 7.87 µM
IGROV-ET; IGROV-ET, read-out: LC50 IGROV-ET
  CC50: 12.9 µM
PANC-1; PANC-1, PANC-1
  GI50: 2190 nM
  IC (TGI): 6.57 µM
PANC-1; PANC-1, PANC-1, read-out: LC50 PANC-1
  CC50: 12.9 µM
SKOV-3
  GI50: 3480 nM
SKOV-3; SK-OV-3, SKOV-3, LC=cell killing (cytotoxic effect), read-out: LC50 SKOV-3
  CC50: 12.9 µM
SKOV-3; SK-OV-3, SKOV-3
  IC (TGI): 6.98 µM
[1]; H-MEC-1 cells, H-MEC-1, LC=cell killing (cytotoxic effect), read-out: LC50 H-MEC-1
  CC50: 6.46 µM
H-MEC-1
  GI50: 746 nM
  IC (TGI): 2.25 µM

## COc1cc(-c2c3n(c4c(=O)oc5cc(OC(=O)[C@@H]6CCCN6)c(OC)cc5c24)CCc2cc(OC(=O)[C@@H]4CCCN4)c(OC)cc2-3)ccc1OC(=O)[C@@H]1CCCN1 [Compound 134]
K-562; K562, K-562
  GI50: 571 nM
  IC (TGI): 4.93 µM
K-562; K562, read-out: LC50 K-562, K-562
  CC50: 8.81 µM
A-549; A549, A-549
  GI50: 2550 nM
  IC (TGI): 4.93 µM
A-549; A549, read-out: LC50 A-549, A-549
  CC50: 8.81 µM
SK-MEL-28; SK-MEL-28, MEL-28
  GI50: 1730 nM
  IC (TGI): 3.23 µM
SK-MEL-28; SK-MEL-28, read-out: LC50 MEL-28, MEL-28
  CC50: 6.04 µM
HT-29; HT-29, HT-29
  GI50: 2850 nM
HT-29; HT-29, read-out: LC50 HT-29, HT-29
  CC50: 8.81 µM
HT-29; HT-29
  IC (TGI): 8.81 µM
LoVo; read-out: LC50 LOVO, LOVO
  CC50: 8.67 µM
LoVo
  GI50: 2050 nM
  IC (TGI): 4.21 µM
LoVo-Dox; LOVO-DOX
  GI50: 0.519 µM
  IC (TGI): 1.99 µM
LoVo-Dox; read-out: LC50 LOVO-DOX, LOVO-DOX
  CC50: 7.79 µM
DU-145; DU-145, DU-145
  GI50: 2120 nM
  IC (TGI): 4.47 µM
DU-145; DU-145, read-out: LC50 DU-145, DU-145
  CC50: 8.81 µM
LNCaP; LN-caP
  GI50: 458 nM
  IC (TGI): 1.34 µM
LNCaP; read-out: LC50 LN-caP, LN-caP
  CC50: 4.16 µM
SK-BR-3; SK-BR-3, SK-BR-3
  GI50: 2100 nM
  IC (TGI): 4.34 µM
SK-BR-3; SK-BR-3, read-out: LC50 SK-BR-3, SK-BR-3
  CC50: 8.81 µM
IGROV; read-out: LC50 IGROV, IGROV
  CC50: 6.5 µM
IGROV
  GI50: 943 nM
  IC (TGI): 2.48 µM
IGROV-ET; IGROV-ET
  GI50: 482 nM
  IC (TGI): 2.14 µM
IGROV-ET; read-out: LC50 IGROV-ET, IGROV-ET
  CC50: 7.58 µM
PANC-1; PANC-1, PANC-1
  GI50: 2170 nM
  IC (TGI): 4.53 µM
PANC-1; PANC-1, read-out: LC50 PANC-1, PANC-1
  CC50: 8.81 µM
SKOV-3
  GI50: 739 nM
SKOV-3; SK-OV-3, read-out: LC50 SKOV-3
  CC50: 4.26 µM
SKOV-3; SK-OV-3, SKOV-3
  IC (TGI): 1.85 µM
[1]; LC50 H-MEC-1
  CC50: 8.81 µM
H-MEC-1
  GI50: 2130 nM
  IC (TGI): 6.51 µM
